Like-named read-outs stand apart in the source and are kept apart here.

The subject of one assay is NCI-H460. The assay can be described thus: Inhibition test on cell proliferation (MTT), NCI-H460. Format: cell-based, human. Here is the method: (§1) Tumor cells (NCI-H460, BxPC-3, HT-29, HCC-LM3) in the logarithmic growth phase were digested, centrifuged, and the supernatants were removed. Cells were resuspended by adding fresh culture medium, and counted using a cell counting plate. 100 μL of culture medium (containing cells) was added to a 96-well plate according to the standard of 2000 to 6000 cells per well and incubated in an incubator (37° C., 5% CO2) for 24 hours. After the cells were completely adhered to the wall, the test sample and Plinabulin were diluted to different concentrations using fresh culture medium, and 4 wells were set for each concentration. After 72 hours of drug treatment, the culture medium was removed, and 20 μL of MTT at a concentration of 5 mg/mL was added to each well. After 3-4 hours in the incubator, the MTT was discarded, and 100 μL of DMSO was added to each well, and placed in a 96-well plate shaker to completely dissolve the purple formazan. Subsequently, the absorbance (OD value) was detected at a wavelength of 490 nm using a microplate reader. The experiment also required setting up zero-setting wells (blank culture medium, MTT, DMSO). Cell inhibition rate=1−(OD value of drug-dosed group−OD value of zero-setting group)/(OD value of blank group−OD value of zero-setting group)×100%.

The next assay deals with BxPC-3. The assay can be described thus: Inhibition test on cell proliferation (MTT), BxPC-3. The following applies: read-out: IC50 (nM) BxPC-3. Format: cell-based, human. Here is the method:
as §1

The mark [1] stands for this setting: Homo sapiens, NCI-H460, 72 h, 72 hours of drug treatment, MTT, read-out: IC50 (nM) NCI-H460.
The mark [2] stands for this setting: 72 hours of drug treatment, MTT, read-out: IC50 (nM) NCI-H460.
Where [3] appears, read: 72 hours of drug treatment, MTT.
[4] abbreviates: Homo sapiens, BXPC-3, 72 h, 72 hours of drug treatment, MTT.
The mark [5] stands for this setting: Homo sapiens, NCI-H460, 72 h, read-out: IC50 (nM) NCI-H460, 72 hours of drug treatment, MTT.

By IC50 is commonly meant the concentration that inhibits the measured activity by half. With `CC(C)c1c(/C=c2\[nH]c(=O)/c(=C/c3ccc(F)cc3)[nH]c2=O)ncn1CCCN1CCOCC1` [PLN-2-11, (3Z,6Z)-3-p-fluorobenzylidene-6-((5-isopropyl-1-(−3-morpholinyl)propylimidazol-4-yl)methylene)piperazine-2,5-dione], in the assay on NCI-H460 (setting [1]), the 50% inhibitory concentration (IC50) is 234 ± 25.7 nM.
Take `CC1CN(CCCn2cnc(/C=c3\[nH]c(=O)/c(=C/c4cccc(C(=O)c5ccc(F)cc5)c4)[nH]c3=O)c2C(C)C)CC(C)O1` (centres unmarked) [PLN-2-12, (3Z,6Z)-3-(3-(p-fluorobenzoyl)phenyl)methylene-6-((5-isopropyl-1-((2,6-dimethyl)-3-morpholinyl)propylimidazol-4-yl)methylene)piperazine-2,5-dione]: the IC50 with NCI-H460 (setting [2]) was determined as 3.77 ± 0.62 nM; in the assay with BxPC-3 (setting [3]), 2.48 ± 2.12 nM.
On to `CC1CN(CCCn2cnc(/C=c3\[nH]c(=O)/c(=C/c4cccc(C(=O)c5ccc(F)cc5)c4)[nH]c3=O)c2C(C)C)CC(C)O1` (centres unmarked) [PLN-2-13, (3Z,6Z)-3-(3-(p-fluorobenzoyl)phenyl)methylene-6-((5-isopropyl-1-((2,6-dimethyl)-3-morpholinyl)propylimidazol-4-yl)methylene)piperazine-2,5-dione], for which the values for the half-maximal inhibitory concentration (IC50) with NCI-H460 (setting [2]) and with BxPC-3 (setting [3]) were 8.2 ± 0.54 nM and 14.9 ± 2.62 nM, respectively.
Consider `CC1CN(CCCn2cnc(/C=c3\[nH]c(=O)/c(=C/c4cccc(C(=O)c5ccc(F)cc5)c4)[nH]c3=O)c2C2CC2)CC(C)O1` (centres unmarked) [PLN-2-14, (3Z,6Z)-3-(3-(p-fluorobenzoyl)phenyl)methylene-6-((5-cyclopropyl-1-((2,6-dimethyl)-3-morpholinyl)propylimidazol-4-yl)methylene)piperazine-2,5-dione], for which the IC50 in the assay with NCI-H460 (setting [1]) turned out to be 9.33 ± 0.54 nM; in the assay with BxPC-3 (setting [4]), 9.33 ± 0.45 nM.
As for `CC(C)c1c(/C=c2\[nH]c(=O)/c(=C/c3cccc(C(=O)c4ccc(F)cc4)c3)[nH]c2=O)ncn1CCCN1CCN(C(=O)OC(C)(C)C)CC1` [PLN-2-15, (3Z,6Z)-3-(3-(p-fluorobenzoyl)phenyl)methylene-6-((5-isopropyl-1-(3-N-tert-butoxycarbonylpiperazinyl)propylimidazol-4-yl)methylene)piperazine-2,5-dione], the values for the IC50 in the assay on NCI-H460 (setting [1]) and in the assay with BxPC-3 (setting [4]) were 8.01 ± 1.24 nM and 6.77 ± 0.08 nM, respectively.
`CC(C)c1c(/C=c2\[nH]c(=O)/c(=C/c3cccc(Oc4ccc(F)cc4)c3)[nH]c2=O)ncn1CCCN1CCN(C(=O)OC(C)(C)C)CC1` [PLN-2-17, (3Z,6Z)-3-(3-(4-Fluorophenoxy)phenyl)methylene-6-((5-isopropyl-1-(3-N-tert-butoxycarbonylpiperazinyl)propylimidazol-4-yl)methylene)piperazine-2,5-dione]: the concentration for half-maximal inhibition (IC50) in the assay with NCI-H460 (setting [1]) came out at 41.8 ± 2.27 nM; in the assay on BxPC-3 (setting [4]), 21.1 ± 2.41 nM.
`O=c1[nH]/c(=C\c2ncn(CCCN3CCNCC3)c2C2CC2)c(=O)[nH]/c1=C\c1cccc(Oc2ccc(F)cc2)c1` [PLN-2-19-1]: in the assay with NCI-H460 (read-out: IC50 (nM) NCI-H460, 72 hours of drug treatment, MTT), the IC50 came to 204 ± 4.24 nM.
In the case of `O=c1[nH]/c(=C\c2ncn(CCCN3CCNCC3)c2C2CC2)c(=O)[nH]/c1=C\c1cccc(Oc2ccc(F)cc2)c1` [PLN-2-19], the IC50 in the assay with NCI-H460 (setting [5]) stood at 213 ± 12.8 nM.
For `CC(C)c1c(/C=c2\[nH]c(=O)/c(=C/c3cc(F)ccc3F)[nH]c2=O)ncn1CCCN1CCNCC1` [PLN-2-20, (3Z,6Z)-3-(2,5-difluorophenyl)methylene-6-((5-isopropyl-1-(3-piperazinyl)propylimidazol-4-yl)methylene)piperazine-2,5-dione], the concentration for half-maximal inhibition (IC50) with NCI-H460 (setting [1]) is 147 ± 14.5 nM; in the assay with BxPC-3 (setting [4]), 91.63 ± 0.62 nM.
For `CC(C)c1c(/C=c2\[nH]c(=O)/c(=C/c3cccc(Oc4ccc(F)cc4)c3)[nH]c2=O)ncn1CCCN1CCN(C)CC1` [PLN-2-22, (3Z,6Z)-3-(3-(p-fluorophenoxy)phenyl)methylene-6-((5-isopropyl-1-(3-N-methylpiperazinyl)propylimidazol-4-yl)methylene)piperazine-2,5-dione], the concentration for half-maximal inhibition (IC50) worked out at 85.7 ± 10.6 nM in the assay with NCI-H460 (setting [1]) and 66.2 ± 1.45 nM in the assay on BxPC-3 (setting [4]).
`CN1CCN(CCCn2cnc(/C=c3\[nH]c(=O)/c(=C/c4cccc(Oc5ccc(F)cc5)c4)[nH]c3=O)c2C2CC2)CC1` [PLN-2-23]: the IC50 in the assay on NCI-H460 (setting [1]) worked out at 158 ± 25.7 nM.
With `CC(C)c1c(/C=c2\[nH]c(=O)/c(=C/c3cc(F)ccc3F)[nH]c2=O)ncn1CCCN1CCN(C)CC1` [PLN-2-24], the IC50 with NCI-H460 (setting [1]) amounted to 28.6 ± 1.4 nM; in the assay with BxPC-3 (setting [4]), 13.19 ± 0.07 nM.
On to `CC(C)c1c(/C=c2\[nH]c(=O)/c(=C/c3cccc(C(=O)c4ccc(F)cc4)c3)[nH]c2=O)ncn1CCCN1CCN(Cc2ccccc2)CC1` [PLN-2-25, (3Z,6Z)-3-(3-(p-fluorobenzoyl)phenyl)methylene-6-((5-isopropyl-1-(3-N-benzylpiperazinyl)propylimidazol-4-yl)methylene)piperazine-2,5-dione], for which the IC50 in the assay with NCI-H460 (setting [1]) was found to be 18.4 ± 2.95 nM.
On to `CC(C)c1c(/C=c2\[nH]c(=O)/c(=C/c3cccc(C(=O)c4ccc(F)cc4)c3)[nH]c2=O)ncn1CCCN1CCN(c2ccc(F)cc2)CC1` [PLN-2-26, (3Z,6Z)-3-(3-(p-fluorobenzoyl)phenyl)methylene-6-((5-isopropyl-1-(3-N-(p-fluorophenyl)piperazinyl)propylimidazol-4-yl)methylene)piperazine-2,5-dione], for which, in the assay with NCI-H460 (setting [1]), the IC50 came to 50.1 ± 0.69 nM.
In the case of `CC(C)c1c(/C=c2\[nH]c(=O)/c(=C/c3cccc(C(=O)c4ccc(F)cc4)c3)[nH]c2=O)ncn1CCCN1CCN(Cc2ccc(B3OC(C)(C)C(C)(C)O3)cc2)CC1` [PLN-2-27, (3Z,6Z)-3-(3-(p-fluorobenzoyl)phenyl)methylene-6-((5-isopropyl-1-(3-N-(4-(4,4,5,5-tetramethyl-1,3,2-dioxaborolan-2-yl))benzylpiperazinyl)propylimidazol-4-yl)methylene)piperazine-2,5-dione], the results for the IC50 in the assay on NCI-H460 (setting [1]) and in the assay with BxPC-3 (setting [4]) were 23.9 ± 4.76 nM and 17.9 ± 5.9 nM, respectively.
Turning to `CC(C)c1c(/C=c2\[nH]c(=O)/c(=C/c3cccc(C(=O)c4ccc(F)cc4)c3)[nH]c2=O)ncn1CCCN1CCN(C(=O)OCc2ccc(B3OC(C)(C)C(C)(C)O3)cc2)CC1` [PLN-2-28, (3Z,6Z)-3-(3-(p-fluorobenzoyl)phenyl)methylene-6-((5-isopropyl-1-(3-N-p-(4,4,5,5-tetramethyl-1,3,2-dioxaborolan-2-yl)benzyloxycarbonylpiperazinyl)propylimidazol-4-yl)methylene)piperazine-2,5-dione], the IC50 worked out at 15.4 ± 1.68 nM in the assay on NCI-H460 (setting [5]) and 9.22 ± 3.93 nM with BxPC-3 (Homo sapiens, BXPC-3, 72 h).
Take `CC(C)c1c(/C=c2\[nH]c(=O)/c(=C/c3cccc(C(=O)c4ccc(F)cc4)c3)[nH]c2=O)ncn1CCCN1CCN(C=O)CC1` [PLN-2-29, (3Z,6Z)-3-(3-(p-fluorobenzoyl)phenyl)methylene-6-((5-isopropyl-1-(3-N-formylpiperazinyl)propylimidazol-4-yl)methylene)piperazine-2,5-dione]: the half-maximal inhibitory concentration (IC50) in the assay with NCI-H460 (setting [1]) stood at 3.46 ± 0.25 nM; with BxPC-3 (setting [4]), 1.4 ± 0.04 nM.
For the molecule `CC(=O)N1CCN(CCCn2cnc(/C=c3\[nH]c(=O)/c(=C/c4cccc(C(=O)c5ccc(F)cc5)c4)[nH]c3=O)c2C(C)C)CC1` [PLN-2-30, (3Z,6Z)-3-(3-(p-fluorobenzoyl)phenyl)methylene-6-((5-isopropyl-1-(3-N-acetylpiperazinyl)propylimidazol-4-yl)methylene)piperazine-2,5-dione], the half-inhibitory concentration (IC50) with NCI-H460 (setting [1]) was found to be 3.98 ± 0.33 nM; in the assay with BxPC-3 (setting [4]), 2.3 ± 0.08 nM.
Turning to `CCC(=O)N1CCN(CCCn2cnc(/C=c3\[nH]c(=O)/c(=C/c4cccc(C(=O)c5ccc(F)cc5)c4)[nH]c3=O)c2C(C)C)CC1` [PLN-2-31, (3Z,6Z)-3-(3-(p-fluorobenzoyl)phenyl)methylene-6-((5-isopropyl-1-(3-N-propionylpiperazinyl)propylimidazol-4-yl)methylene)piperazine-2,5-dione], the IC50 was found to be 6.93 ± 0.96 nM in the assay with NCI-H460 (setting [1]) and 2.48 ± 0.57 nM in the assay on BxPC-3 (setting [4]).
`CC(C)c1c(/C=c2\[nH]c(=O)/c(=C/c3cccc(C(=O)c4ccc(F)cc4)c3)[nH]c2=O)ncn1CCCN1CCN(C(=O)C2CCCCC2)CC1` [PLN-2-38, (3Z,6Z)-3-(3-(p-fluorobenzoyl)phenyl)methylene-6-((5-isopropyl-1-(3-N-cyclohexanecarbonylpiperazinyl)propylimidazol-4-yl)methylene)piperazine-2,5-dione]: in the assay on NCI-H460 (setting [1]), the IC50 was found to be 7.3 ± 0.44 nM.
As for `CC(C)c1c(/C=c2\[nH]c(=O)/c(=C/c3cccc(C(=O)c4ccc(F)cc4)c3)[nH]c2=O)ncn1CCCN1CCN(C(=O)C23CC4CC(CC(C4)C2)C3)CC1` [PLN-2-39, (3Z,6Z)-3-(3-(p-fluorobenzoyl)phenyl)methylene-6-((5-isopropyl-1-(3-N-adamantanecarbonylpiperazinyl)propylimidazol-4-yl)methylene)piperazine-2,5-dione], the IC50 in the assay on NCI-H460 (setting [5]) came to 37.2 ± 3.61 nM.
On to `CC(C)c1c(/C=c2\[nH]c(=O)/c(=C/c3cccc(C(=O)c4ccc(F)cc4)c3)[nH]c2=O)ncn1CCCN1CCN(S(=O)(=O)c2ccccc2)CC1` [PLN-2-43, (3Z,6Z)-3-(3-(p-fluorobenzoyl)phenyl)methylene-6-((5-isopropyl-1-(3-N-phenylmethylsulfonylpiperazinyl)propylimidazol-4-yl)methylene)piperazine-2,5-dione], for which, in the assay with NCI-H460 (setting [1]), the IC50 was 11.1 ± 0.9 nM.

The values above are taken from patent US20240140941A1, “DERIVATIVE OF 2,5-DIKETOPIPERAZINE COMPOUND, AND PREPARATION METHOD THEREFOR, PHARMACEUTICAL COMPOSITION THEREOF AND USE THEREOF” (DALIAN WZ PROBIOTICS AD HEALTH CO., LTD, priority 2020, published 2024).
